Data on 4 compounds can be found in patent US6632921B1, “Seryl-lysyl-based peptide and peptidomimetic inhibitors of N-myristoyl transferase as anti-infective agents” (G. D Searle & Co, priority 1995, dated 2003).

The subject of test [1] is HIV-1. To be noted: acutely and chronically infected human T-lymphocyte cell lines, doses which do not cause cellular toxicity; cited from earlier work.
Test [2] concerns a variety of fungal species, including C. albicans. Conditions: Sabouraud dextrose agar; series of n-alkoxyacetic acids; cited from earlier work.
The subject of test [3] is Candida albicans, strain B311. The test is described as follows: Antifungal susceptibility testing, microdilution broth, pH 5.4/30° C./YNB. The format is cell-based. Conditions: B311, 24 hours, Table V (values agree with pH 5.4 assay), read-out: caEC50 24 hours. As to the method: Antifungal Screens were set up initially against Candida albicans, strain B311, and Cryotococcus neoformans, strain L210425. Both pathogens, (originally from the stock culture collection, Medical mycology research center, Washington university-Barnes hospital), were obtained from Dr.Kobayashi, Prof.of infectious diseases, Washington University, St.Louis, Mo.
All cultures are maintained at 30° C. on Sabouraud's dextrose agar slants and subcultured at monthly intervals to fresh medium. All inocula for susceptibility testing are prepared in yeast nitogen base(YNB, Difco) broth.
A loopful of growth from Sabouraud dextrose agar slant is inoculated into 4 ml of YNB broth media and incubated at 30° C. overnight (18-24 hrs) with constant agitation (Gyratory Shaker, New Brunswick Scientific). Prior to setting up susceptibility testing, the organisms are counted in a hemocytometer, and diluted as needed into assay media.
1) (Assay at DH 5.4/30° C. Incubation/YNB Media).
Antifungal assays were carried out initially by a modification of the method published by Jones, et. al; (1), and communicated to Searle by Dr. Kobayashi, Washington University. [R. N. Jones et al, Manual of Clinical Microbiology, 4th ed., (1985)]
The antifungal susceptibility testing consists of a microdilution broth procedure performed in 96 well microtiter plates (Costar, cat#3799). Briefly, test compounds from a 20 mM stock solution in DMSO are diluted into sterile, deionized water (final DMSO concentration not exceeding 1%), to yield 2× the desired concentration (100 uM, 10 uM and 1 uM for an initial screen, or a selected concentration range in serial 2 fold dilutions for EC50 determination). One hundred microliters (100 ul) of each concentration is dispensed into triplicate wells of a 96 well microtiter plate. Appropriate dilutions of a suspension of C.albicans (1×10^6 cells/ml) in 2× YNB is distributed into each of the wells, including growth control wells containing no test compound as well as control wells with 0.5% DMSO. Amphotericin B at 0.05, 1 and 5 ug/ml is included in each assay plate as a positive control. The plates are incubated at 30° C. and cell growth is scored by reading the absorbance at 590 nm on an Elisa plate reader(Dynatech, MR.5000).

For test [4], the target named is T1, human NMT (Homo sapiens, UniProt P30419).
T1 construct: made in house; host or cells: E. coli
T1 sequence (P30419 1-416 isoform P30419-2): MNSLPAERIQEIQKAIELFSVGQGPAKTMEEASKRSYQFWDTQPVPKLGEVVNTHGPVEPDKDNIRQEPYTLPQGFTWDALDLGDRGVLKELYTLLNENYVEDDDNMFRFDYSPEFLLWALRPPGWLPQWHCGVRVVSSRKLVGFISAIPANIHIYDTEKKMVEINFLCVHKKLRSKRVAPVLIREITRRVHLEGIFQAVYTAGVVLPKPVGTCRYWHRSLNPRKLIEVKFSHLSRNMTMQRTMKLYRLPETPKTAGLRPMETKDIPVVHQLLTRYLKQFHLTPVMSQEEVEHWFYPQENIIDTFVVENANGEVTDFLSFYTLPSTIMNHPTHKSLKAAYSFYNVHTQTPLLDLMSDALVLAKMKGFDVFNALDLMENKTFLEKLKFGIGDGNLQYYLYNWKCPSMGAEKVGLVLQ
The test is described as follows: NMT enzyme inhibition assay (radiochemical HPLC end-point), human NMT. Format: biochemical. To be noted: Table V. As to the method:
Recombinant Candida albicans and human NMTs were expressed and purified from E. coli using previously described protocols. [D. A. Towler et al, Proc. Natl. Acad. Sci. USA, 84, 2707-2712 (1987); R. C. Weigand et al, J. Biol. Chem., 267, 8591-8598 (1992); R. J. Duronio et al, Proc. Natl. Acad. Sci. USA, 89, 4129-4133 (1992)] The ability of compounds to inhibit Candida NMT enzymatic activity was assessed using a radiochemical HPLC end-point assay as described previously for Saccharomyces cerevisiae and human NMTs. [D. Towler et al, Proc. Natl. Acad. Sci. USA, 83, 2812-2816 (1986); W. J. Rocque et al, J. Biol. Chem., 268, 9964-9971 (1991)] The donor substrate [^3H]myristoyl-coenzyme A was enzymatically synthesized from [^3H]myristic acid (50 Ci/mmol, Amersham, Arlington Heights, Ill.) and coenzyme A (Fluka Chemical Corp., Ronkonkoma, N.Y.), and purified as described previously. [W. J. Rocque et al, J. Biol. Chem., 268, 9964-9971 (1991)] The peptide acceptor substrate GNAASARR-NH2 was prepared by solid-phase peptide synthesis using the t-Boc amino acid methodology, followed by HF treatment and reverse-phase HPLC purification. Inhibitor stock solutions were prepared at 22 mM in DMSO; the final concentration of DMSO in each assay was 0.5% (v/v). […] The reaction was quenched after 10 minutes at 24° C. by the addition of ice-cold MeOH, and the reaction products were separated and measured using C4 reverse-phase HPLC (Vydac 214TP10415; Separations Group, Hesperia, Calif.) and in-line scintillation counting using a Radiomatic A250 (Packard Instruments, Downers Grove, Ill.) and Ecolite(+) (ICN Biomedical, Costa Mesa, Calif.) as the scintillant. Selectivity was determined by calculating the ratio of the IC50 against human NMT to the IC50 against C. albicans NMT.

In test [5] the target is T2, Candida albicans NMT (Candida albicans, UniProt P30418).
T2 construct: made in house; host or cells: E. coli
T2 sequence (P30418 1-451): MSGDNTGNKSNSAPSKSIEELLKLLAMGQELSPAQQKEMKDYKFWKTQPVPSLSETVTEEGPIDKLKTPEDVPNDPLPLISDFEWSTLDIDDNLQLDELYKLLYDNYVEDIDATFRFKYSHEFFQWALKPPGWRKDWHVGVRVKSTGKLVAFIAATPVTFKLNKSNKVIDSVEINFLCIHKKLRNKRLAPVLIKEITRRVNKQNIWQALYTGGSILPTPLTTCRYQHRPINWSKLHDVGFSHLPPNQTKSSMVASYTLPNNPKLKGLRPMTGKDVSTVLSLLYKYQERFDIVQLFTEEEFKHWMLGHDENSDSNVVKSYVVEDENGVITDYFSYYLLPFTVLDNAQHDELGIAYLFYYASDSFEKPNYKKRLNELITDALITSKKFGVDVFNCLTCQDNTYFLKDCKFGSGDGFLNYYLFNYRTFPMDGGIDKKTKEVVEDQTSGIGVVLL
The experiment in a line: NMT enzyme inhibition assay (radiochemical HPLC end-point), Candida NMT. Format: biochemical. As to the method: Recombinant Candida albicans and human NMTs were expressed and purified from E. coli using previously described protocols. [D. A. Towler et al, Proc. Natl. Acad. Sci. USA, 84, 2707-2712 (1987); R. C. Weigand et al, J. Biol. Chem., 267, 8591-8598 (1992); R. J. Duronio et al, Proc. Natl. Acad. Sci. USA, 89, 4129-4133 (1992)] The ability of compounds to inhibit Candida NMT enzymatic activity was assessed using a radiochemical HPLC end-point assay as described previously for Saccharomyces cerevisiae and human NMTs. [D. Towler et al, Proc. Natl. Acad. Sci. USA, 83, 2812-2816 (1986); W. J. Rocque et al, J. Biol. Chem., 268, 9964-9971 (1991)] The donor substrate [^3H]myristoyl-coenzyme A was enzymatically synthesized from [^3H]myristic acid (50 Ci/mmol, Amersham, Arlington Heights, Ill.) and coenzyme A (Fluka Chemical Corp., Ronkonkoma, N.Y.), and purified as described previously. [W. J. Rocque et al, J. Biol. Chem., 268, 9964-9971 (1991)] The peptide acceptor substrate GNAASARR-NH2 was prepared by solid-phase peptide synthesis using the t-Boc amino acid methodology, followed by HF treatment and reverse-phase HPLC purification. Inhibitor stock solutions were prepared at 22 mM in DMSO; the final concentration of DMSO in each assay was 0.5% (v/v). Inhibition assays were carried out by combining variable amounts of inhibitor or buffer with […] of [^3H]myristoyl-coenzyme A (1 μCi, 9.09 Ci/mmol) and 2.2 nmoles of GNAASARR-NH2 in a total volume of 60 μL of 0.2 M N-[2-hydroxy-ethyl]piperazine-N′-[2-ethanesulfonic acid], pH 7.4, 2 mM DL-dithiothreitol, 0.2 mM ethylene glycol-bis-(β-aminoethyl ether) N,N,N′,N′-tetraacetic acid, and initiating the reaction by the addition of 50 μL of a Candida NMT solution (7-12 ng/50 μL). Assays with human NMT were identical except that they used 60-75 ng/50 μL of enzyme solution and 0.22 nmoles of GNAASARR-NH2. The reaction was quenched after 10 minutes at 24° C. by the addition of ice-cold MeOH, and the reaction products were separated and measured using C4 reverse-phase HPLC (Vydac 214TP10415; Separations Group, Hesperia, Calif.) and in-line scintillation counting using a Radiomatic A250 (Packard Instruments, Downers Grove, Ill.) and Ecolite(+) (ICN Biomedical, Costa Mesa, Calif.) as the scintillant. Selectivity was determined by calculating the ratio of the IC50 against human NMT to the IC50 against C. albicans NMT.

Take `COCCCCCCCCCCCC(=O)O` [13-oxatetradecanoic acid]: the “inhibition of HIV-1 replication” value in test [1] is “inhibits HIV-1 replication”.

Take `CCCCCCCCCCCOCC(=O)O` [3-oxatetradecanoic acid]: in test [2], the “effects on the growth of fungal species” value is “inhibiting growth”.

For `CCCCCCCCOCC(=O)O` [3-oxaundecanoic acid], the “effects on the growth of fungal species” value in test [2] is “broadest spectrum and highest potency”.

For `Cc1nccn1CCCCc1ccc(C(C)C(=O)N[C@@H](CO)C(=O)N[C@@H](CCCCN)C(=O)N[C@@H](CC2CCCCC2)C(=O)O)cc1` (mixture of isomers) [Example 1, L-Alanine, 3-cyclohexyl-N-[N^2-[N-[2-[4-[4-(2-methyl-1H-imidazol-1-yl)butyl]phenyl]oxopropyl]-L-seryl]-L-lysyl]-, (±), bis-trifluoroacetate], in test [3], the EC50 was 33 µM. Also, the 50% inhibitory concentration (IC50) (usually the concentration that inhibits the measured activity by half) stood at 850 µM in test [4] and 0.4 µM in test [5] (Table V, read-out: IC50 caNMT). In addition, in test [5] (ratio of IC50 against human NMT to IC50 against C. albicans NMT), the Selectivity is recorded as 2200.
